Earlier results in PMC9186412, “Rational Framework for the Design of Trp- and Arg-Rich Peptide Antibiotics Against Multidrug-Resistant Bacteria” (Frontiers in Microbiology, 2022).
Like-named read-outs stand apart in the source and are kept apart here.

Assays:
[1] = system: CDC AR isolates; design: key: S (green), susceptible; I (blue), intermediate; R (red), resistant; settings: data provided by the CDC, ref CDC, cited from earlier work
Text: Supplement Table_3.XLSX, sheet "CDC AR isolates profiles" | column: G(-) strains

[2] = system: CDC AR isolates; design: key: S (green), susceptible; I (blue), intermediate; R (red), resistant; settings: data provided by the CDC, ref CDC, cited from earlier work; remark: listed apart in the source
[3] = Enterococcus faecium EF671, CDC AR isolate
[4] = Enterococcus faecium EF672, CDC AR isolate
[5] = Enterococcus faecium EF673, CDC AR isolate
[6] = Enterococcus faecium EF500, CDC AR isolate
[7] = Acinetobacter baumannii AB273, CDC AR isolate
[8] = Acinetobacter baumannii AB274, CDC AR isolate
[9] = Acinetobacter baumannii AB275, CDC AR isolate
[10] = Acinetobacter baumannii AB276, CDC AR isolate
[11] = Enterobacter cloacae E62, CDC AR isolate
[12] = Enterobacter cloacae E544, CDC AR isolate
[13] = Enterobacter cloacae E545, CDC AR isolate
[14] = Enterobacter cloacae E546, CDC AR isolate
[15] = Escherichia coli EC541, CDC AR isolate
[16] = Escherichia coli EC543, CDC AR isolate
[17] = Escherichia coli EC544, CDC AR isolate
[18] = Escherichia coli EC549, CDC AR isolate
[19] = Klebsiella pneumoniae KP542, CDC AR isolate
[20] = Klebsiella pneumoniae KP548, CDC AR isolate
[21] = Klebsiella pneumoniae KP550, CDC AR isolate
[22] = Klebsiella pneumoniae KP552, CDC AR isolate
[23] = Pseudomonas aeruginosa PA229, CDC AR isolate
[24] = Pseudomonas aeruginosa PA230, CDC AR isolate
[25] = Pseudomonas aeruginosa PA231, CDC AR isolate
[26] = Pseudomonas aeruginosa PA232, CDC AR isolate
[27] = Pseudomonas aeruginosa PA239, CDC AR isolate
[28] = Staphylococcus aureus SA462, CDC AR isolate
[29] = Staphylococcus aureus SA463, CDC AR isolate
[30] = Staphylococcus aureus SA561, CDC AR isolate
[31] = Staphylococcus aureus SA461, CDC AR isolate

Row | Compound | Antibiotic susceptibility profile [1, 3] | Antibiotic susceptibility profile [1, 4] | Antibiotic susceptibility profile [2, 5] | Antibiotic susceptibility profile [1, 6] | Antibiotic susceptibility profile [1, 7] | Antibiotic susceptibility profile [1, 8] | Antibiotic susceptibility profile [1, 9] | Antibiotic susceptibility profile [1, 10] | Antibiotic susceptibility profile [1, 11] | Antibiotic susceptibility profile [1, 12] | Antibiotic susceptibility profile [1, 13] | Antibiotic susceptibility profile [1, 14] | Antibiotic susceptibility profile [1, 15] | Antibiotic susceptibility profile [1, 16] | Antibiotic susceptibility profile [1, 17] | Antibiotic susceptibility profile [1, 18] | Antibiotic susceptibility profile [1, 28] | Antibiotic susceptibility profile [1, 29] | Antibiotic susceptibility profile [1, 30] | Antibiotic susceptibility profile [2, 31] | other results
1 | Nc1nc(-n2cc(C(=O)O)c(=O)c3cc(F)c(N4CC(O)C4)c(Cl)c32)c(F)cc1F [Delafloxacin] | S | S | S | – | – | – | – | – | – | – | – | – | – | – | – | – | – | – | – | – | –
2 | Teicoplanin | S | S | S | S | – | – | – | – | – | – | – | – | – | – | – | – | – | – | – | – | –
3 | CNC(C)C1CCC(N)C(OC2C(N)CC(N)C(OC3OCC(C)(O)C(NC)C3O)C2O)O1 (stereo not shown) [Gentamicin] | – | – | – | – | R | R | R | R | S | R | R | S | S | R | R | S | S | S | S | S | Antibiotic susceptibility profile [1, 19]: R; Antibiotic susceptibility profile [1, 20]: S; Antibiotic susceptibility profile [1, 21]: R; Antibiotic susceptibility profile [1, 22]: S; Antibiotic susceptibility profile [1, 23]: S; Antibiotic susceptibility profile [1, 24]: R; Antibiotic susceptibility profile [1, 25]: R; Antibiotic susceptibility profile [1, 26]: R; Antibiotic susceptibility profile [1, 27]: R
4 | O=C(N[C@H](CO)[C@H](O)c1ccc([N+](=O)[O-])cc1)C(Cl)Cl [Chloramphenicol] | R | I | S | I | – | – | – | – | – | – | – | – | – | – | – | – | – | – | – | – | –
5 | CO[C@H]1/C=C/O[C@@]2(C)Oc3c(C)c(O)c4c(O)c(c(/C=N/N5CCN(C)CC5)c(O)c4c3C2=O)NC(=O)/C(C)=C\C=C\[C@H](C)[C@H](O)[C@@H](C)[C@@H](O)[C@@H](C)[C@H](OC(C)=O)[C@@H]1C [Rifampin] | I | I | S | R | – | – | – | – | – | – | – | – | – | – | – | – | S | S | – | S | –
6 | CC[C@H]1OC(=O)[C@H](C)[C@@H](O[C@H]2C[C@@](C)(OC)[C@@H](O)[C@H](C)O2)[C@H](C)[C@@H](O[C@@H]2O[C@H](C)C[C@H](N(C)C)[C@H]2O)[C@](C)(O)C[C@@H](C)C(=O)[C@H](C)[C@@H](O)[C@]1(C)O [Erythromycin] | – | – | – | – | – | – | – | – | – | – | – | – | – | – | – | – | S | S | I | R | –
7 | C[C@H]1COc2c(N3CCN(C)CC3)c(F)cc3c(=O)c(C(=O)O)cn1c23 [Levofloxacin] | S | S | S | R | R | R | R | R | R | R | S | R | R | R | R | R | R | S | R | R | Antibiotic susceptibility profile [1, 19]: R; Antibiotic susceptibility profile [1, 20]: R; Antibiotic susceptibility profile [1, 21]: R; Antibiotic susceptibility profile [1, 22]: R; Antibiotic susceptibility profile [1, 23]: R; Antibiotic susceptibility profile [1, 24]: R; Antibiotic susceptibility profile [1, 25]: R; Antibiotic susceptibility profile [1, 26]: R; Antibiotic susceptibility profile [1, 27]: R
8 | CN(C)[C@@H]1C(O)=C(C(N)=O)C(=O)[C@@]2(O)C(O)=C3C(=O)c4c(O)cccc4[C@@](C)(O)[C@H]3C[C@@H]12 [Tetracycline] | – | – | – | – | R | R | R | S | S | R | I | R | R | R | R | R | S | S | R | S | Antibiotic susceptibility profile [1, 19]: R; Antibiotic susceptibility profile [1, 20]: I; Antibiotic susceptibility profile [1, 21]: S; Antibiotic susceptibility profile [1, 22]: R
9 | CN[C@H](CC(C)C)C(=O)N[C@H]1C(=O)N[C@@H](CC(N)=O)C(=O)N[C@H]2C(=O)N[C@H]3C(=O)N[C@H](C(=O)N[C@H](C(=O)O)c4cc(O)cc(O)c4-c4cc3ccc4O)[C@H](O)c3ccc(c(Cl)c3)Oc3cc2cc(c3O[C@@H]2O[C@H](CO)[C@@H](O)[C@H](O)[C@H]2O[C@H]2C[C@](C)(N)[C@H](O)[C@H](C)O2)Oc2ccc(cc2Cl)[C@H]1O [Vancomycin] | S | S | S | S | – | – | – | – | – | – | – | – | – | – | – | – | I | S | S | S | –
10 | CCO/N=C(\C(=O)N[C@@H]1C(=O)N2C(C(=O)[O-])=C(Sc3nc(-c4cc[n+](C)cc4)cs3)CS[C@H]12)c1nsc(N)n1 [Ceftaroline] | – | – | – | – | – | – | – | – | – | – | – | – | R | R | R | R | S | S | S | S | –
11 | CCC[C@@H]1C[C@@H](C(=O)N[C@@H]([C@H]2O[C@H](SC)[C@H](O)[C@@H](O)[C@H]2O)[C@H](C)Cl)N(C)C1 [Clindamycin] | – | – | – | – | – | – | – | – | – | – | – | – | – | – | – | – | S | S | S | R | –
12 | CC1(C)S[C@@H]2[C@H](NC(=O)[C@H](N)c3ccccc3)C(=O)N2[C@H]1C(=O)O [Ampicillin] | S | S | S | R | R | R | R | R | R | R | R | R | R | R | R | R | – | – | – | – | Antibiotic susceptibility profile [1, 19]: R; Antibiotic susceptibility profile [1, 20]: R; Antibiotic susceptibility profile [1, 21]: R; Antibiotic susceptibility profile [1, 22]: R
13 | CO/N=C(\C(=O)N[C@@H]1C(=O)N2C(C(=O)[O-])=C(C[N+]3(C)CCCC3)CS[C@H]12)c1csc(N)n1 [Cefepime] | – | – | – | – | R | R | R | R | S | R | R | R | R | R | R | R | – | – | – | – | Antibiotic susceptibility profile [1, 19]: R; Antibiotic susceptibility profile [1, 20]: R; Antibiotic susceptibility profile [1, 21]: R; Antibiotic susceptibility profile [1, 22]: R; Antibiotic susceptibility profile [1, 23]: R; Antibiotic susceptibility profile [1, 24]: R; Antibiotic susceptibility profile [1, 25]: R; Antibiotic susceptibility profile [1, 26]: S; Antibiotic susceptibility profile [1, 27]: R
